From US20250368678A1, “19-NOR-C3,3-DISUBSTITUTED C21-AZACYCLO-S[…] AND METHOD FOR USING SAME” (SHANDONG LUYE PHARMACEUTICAL CO., LTD., priority 2022, published 2025)

System: SD rats
Test: Loss of righting reflex in SD rats, intraperitoneal injection
Assay type: in vivo
Settings: for rate of loss of righting reflex: within 4 h
Description: To determine the threshold for the loss of righting reflex in SD rats after injection of compound 41 in order to evaluate the sedative effect and therapeutic safety window of the compound.
Male SD rats weighing 180-200 g, as test animals, were acclimatized for 7 days after arriving at the animal facility and were randomly divided into groups based on weight one day before testing. The rats were fasted for half a day before testing but had access to water. Doses of compound 41 were designed in a 0.8-fold gradient, and the doses were set at 23.5 mg/kg, 18.8 mg/kg, 15 mg/kg, 12 mg/kg, and 9.6 mg/kg. Observations were made on the loss of righting reflex within 4 h of intraperitoneally injecting compound 41 into the rats.

With C[C@@]1(O)CC[C@H]2[C@H](CC[C@@H]3[C@@H]2CC[C@]2(C)[C@@H](C(=O)Cn4cnn(-c5cc(F)nc(F)c5)c4=O)CC[C@@H]32)C1 [Compound 41] the “rate of loss of righting reflex” value (9.6 mg/kg intraperitoneal) was 0, the “rate of loss of righting reflex” value (12 mg/kg intraperitoneal) was 0 and the “rate of loss of righting reflex” value (15 mg/kg intraperitoneal) was 30%. The “rate of loss of righting reflex” value (18.8 mg/kg intraperitoneal) was 50%, the “rate of loss of righting reflex” value (23.5 mg/kg intraperitoneal) was 80% and the “therapeutic safety window (in words)” value (intraperitoneal) was “relatively wide”. The “threshold dose for the loss of righting reflex” value (intraperitoneally injected) was 12 mg/kg.
